Assay results published in the NIST ThermoML archive (doi:10.1016/j.fluid.2004.09.013).
Numbers after ± are expanded uncertainties.

Conditions: for mass density: Fluid (supercritical or subcritical phases), Vibrating tube method

C=C(C)C [2-methylpropene]
Conditions | Critical density [kg/m3] | mass density [kg/m3]
458.25 K, 5017 kPa | – | 125.47 ± 0.61
458.25 K, 9993 kPa | – | 351.66 ± 0.85
458.25 K, 14983 kPa | – | 408.65 ± 0.92
458.25 K, 19987 kPa | – | 439.63 ± 1
458.25 K, 25004 kPa | – | 461.27 ± 1.1
458.25 K, 29988 kPa | – | 478.03 ± 1.2
458.25 K, 34987 kPa | – | 491.88 ± 1.3
463.25 K, 5016 kPa | – | 119.04 ± 0.59
463.25 K, 9981 kPa | – | 338.41 ± 0.82
463.25 K, 14994 kPa | – | 400.72 ± 0.91
463.25 K, 19983 kPa | – | 433.24 ± 1
463.25 K, 25001 kPa | – | 455.8 ± 1.1
463.25 K, 29987 kPa | – | 473.13 ± 1.2
463.25 K, 34998 kPa | – | 487.42 ± 1.3
463.25 K, 39991 kPa | – | 499.76 ± 1.4
468.25 K, 5015 kPa | – | 113.61 ± 0.57
468.25 K, 9993 kPa | – | 325.38 ± 0.8
468.25 K, 14991 kPa | – | 392.57 ± 0.89
468.25 K, 19999 kPa | – | 426.94 ± 0.99
468.25 K, 24992 kPa | – | 450.29 ± 1.1
468.25 K, 29998 kPa | – | 468.26 ± 1.2
468.25 K, 34985 kPa | – | 482.91 ± 1.3
473.25 K, 5018 kPa | – | 109.13 ± 0.55
473.25 K, 9986 kPa | – | 311.87 ± 0.77
473.25 K, 14992 kPa | – | 384.37 ± 0.88
473.25 K, 20001 kPa | – | 420.52 ± 0.98
473.25 K, 24988 kPa | – | 444.78 ± 1.1
473.25 K, 29996 kPa | – | 463.37 ± 1.2
473.25 K, 34999 kPa | – | 478.46 ± 1.2
478.25 K, 5019 kPa | – | 105.12 ± 0.52
478.25 K, 9988 kPa | – | 298.62 ± 0.74
478.25 K, 14996 kPa | – | 376.12 ± 0.86
478.25 K, 19999 kPa | – | 414.08 ± 0.97
478.25 K, 24987 kPa | – | 439.29 ± 1.1
478.25 K, 30005 kPa | – | 458.51 ± 1.1
478.25 K, 34997 kPa | – | 474 ± 1.2
483.25 K, 5019 kPa | – | 101.57 ± 0.5
483.25 K, 9988 kPa | – | 285.6 ± 0.72
483.25 K, 14984 kPa | – | 367.69 ± 0.84
483.25 K, 19990 kPa | – | 407.57 ± 0.95
483.25 K, 24996 kPa | – | 433.89 ± 1.1
483.25 K, 29989 kPa | – | 453.63 ± 1.1
483.25 K, 35003 kPa | – | 469.59 ± 1.2
488.24 K, 4981 kPa | – | 97.35 ± 0.48
488.24 K, 20000 kPa | – | 401.24 ± 0.94
488.25 K, 9987 kPa | – | 273.08 ± 0.69
488.25 K, 14983 kPa | – | 359.4 ± 0.83
488.25 K, 24997 kPa | – | 428.38 ± 1
488.25 K, 30002 kPa | – | 448.75 ± 1.1
488.25 K, 35005 kPa | – | 465.15 ± 1.2
493.24 K, 4981 kPa | – | 94.56 ± 0.46
493.24 K, 9988 kPa | – | 261.21 ± 0.67
493.24 K, 14986 kPa | – | 351.12 ± 0.81
493.24 K, 19989 kPa | – | 394.84 ± 0.93
493.24 K, 24992 kPa | – | 422.89 ± 1
493.24 K, 30006 kPa | – | 443.91 ± 1.1
493.24 K, 35002 kPa | – | 460.71 ± 1.2
498.24 K, 5019 kPa | – | 92.91 ± 0.44
498.24 K, 19995 kPa | – | 387.94 ± 0.91
498.24 K, 30000 kPa | – | 439.07 ± 1.1
498.25 K, 9984 kPa | – | 249.88 ± 0.64
498.25 K, 14995 kPa | – | 342.92 ± 0.8
498.25 K, 24992 kPa | – | 417.4 ± 1
498.25 K, 34999 kPa | – | 456.28 ± 1.2
503.24 K, 4997 kPa | – | 90.01 ± 0.42
503.24 K, 9991 kPa | – | 239.72 ± 0.62
503.24 K, 14990 kPa | – | 334.64 ± 0.78
503.24 K, 19984 kPa | – | 381.57 ± 0.9
503.24 K, 24988 kPa | – | 411.94 ± 1
503.24 K, 30005 kPa | – | 434.24 ± 1.1
503.24 K, 34991 kPa | – | 451.87 ± 1.2
503.24 K, 39995 kPa | – | 466.57 ± 1.3
508.24 K, 5016 kPa | – | 88.26 ± 0.4
508.24 K, 9990 kPa | – | 230.13 ± 0.6
508.24 K, 14990 kPa | – | 326.56 ± 0.77
508.24 K, 19994 kPa | – | 375.29 ± 0.89
508.24 K, 24991 kPa | – | 406.52 ± 0.99
508.24 K, 30000 kPa | – | 429.41 ± 1.1
508.24 K, 34996 kPa | – | 447.5 ± 1.2
508.24 K, 39992 kPa | – | 462.51 ± 1.3
513.24 K, 5016 kPa | – | 86.21 ± 0.39
513.24 K, 9990 kPa | – | 221.29 ± 0.58
513.24 K, 14992 kPa | – | 318.59 ± 0.75
513.24 K, 19996 kPa | – | 368.96 ± 0.88
513.24 K, 24989 kPa | – | 401.13 ± 0.98
513.24 K, 30003 kPa | – | 424.62 ± 1.1
513.24 K, 35008 kPa | – | 443.17 ± 1.2
513.24 K, 39996 kPa | – | 458.53 ± 1.3
518.23 K, 5016 kPa | – | 84.36 ± 0.37
518.24 K, 9992 kPa | – | 213.29 ± 0.56
518.24 K, 14986 kPa | – | 310.73 ± 0.74
518.24 K, 19995 kPa | – | 362.67 ± 0.87
518.24 K, 24992 kPa | – | 395.78 ± 0.97
518.24 K, 29993 kPa | – | 419.86 ± 1.1
518.24 K, 34991 kPa | – | 438.82 ± 1.2
518.24 K, 39999 kPa | – | 454.51 ± 1.3
523.23 K, 5019 kPa | – | 82.65 ± 0.36
523.23 K, 9982 kPa | – | 205.67 ± 0.57
523.23 K, 14990 kPa | – | 303.2 ± 0.77
523.23 K, 19986 kPa | – | 356.38 ± 0.86
523.23 K, 24989 kPa | – | 390.45 ± 0.97
523.23 K, 29998 kPa | – | 415.17 ± 1.1
523.23 K, 39987 kPa | – | 450.55 ± 1.2
523.24 K, 34992 kPa | – | 434.55 ± 1.2
Liquid, visual observation in a variable volume cell:FP | 233.97 ± 4.7 | –

Liquid
Conditions | Critical pressure [kPa] | Critical temperature [K]
– | 4009.8 ± 11 | 418.09 ± 0.11
